# Data reported in US10399932B2, “Inhibitors of indoleamine-2,3-dioxygenase for the treatment of cancer” (BRISTOL-MYERS SQUIBB COMPANY, priority 2015, dated 2019).
# Biological target: human IDO1 (Homo sapiens, UniProt P14902)
# Assay: Assessment of human IDO-1 inhibitory activity in Hela cells (Interferon-gamma activated, Ehrlich reagent, absorbance at 490 nm)
# Assay type: cell-based
# Parameters: endogenous in cells; host or cells: HeLa cells stimulated with interferon-gamma
# Details: 18 hours
# Protocol: Exemplary compounds were tested for inhibition of IDO activity.
# HeLa cells were seeded at 20,000 cells per 30 µL per well with RPMI/phenol red free media containing 10% FBS in a 384-well tissue culture plate (black with clear bottoms). 50 nL of compound was added to cells and incubated at 37° C. for one hour. 20 μL of the recombinant human Interferon-gamma (R&D System, Cat. #285-IF, at final concentration of 10 ng/ml) or recombinant murine Interferon-gamma (PEPROTECH® Inc., Cat. #315-05, final concentration of 5 ng/ml) was added to activate IDO signaling. The cells were incubated for 18 hours in 37° C. incubator with 5% CO2.
# Compound treatment was stopped by adding 5 μl trichloroacetic acid to a final concentration of 3%. Subsequently, the cell plate was further incubated at 50° C. for 30 minute. An equal volume supernatant (20 μL) and 2% (w/v) Ehrlich reagent (4-dimethylaminobenzaldehyde) in glacial acetic acid were mixed in a new clear bottom 384-well plate. This plate was incubated at room temperature for 30 minutes. Absorbance at 490 nm was measured on Envision plate reader.
# Compound IC50 values were calculated using counts from unstimulated (no INF-gamma treatment) wells as 100% inhibition. INF-gamma treatment without compound treatment as 0% inhibition.
# Chain of human IDO1 (P14902 whole entry): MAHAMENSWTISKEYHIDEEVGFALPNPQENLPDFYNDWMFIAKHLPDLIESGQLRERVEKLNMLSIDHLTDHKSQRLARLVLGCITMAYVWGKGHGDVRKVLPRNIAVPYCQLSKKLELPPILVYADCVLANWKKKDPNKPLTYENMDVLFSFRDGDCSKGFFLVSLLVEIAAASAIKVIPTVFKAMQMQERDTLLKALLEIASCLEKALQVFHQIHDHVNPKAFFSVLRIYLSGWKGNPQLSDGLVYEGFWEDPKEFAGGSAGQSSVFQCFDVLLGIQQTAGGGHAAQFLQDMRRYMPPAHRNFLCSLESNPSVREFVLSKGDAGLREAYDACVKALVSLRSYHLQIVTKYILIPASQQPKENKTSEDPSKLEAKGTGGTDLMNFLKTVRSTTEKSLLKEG
row,Compound,IC50 [nM]
1,"CCOc1ncc(Nc2cc(C(CC)CC(=O)O)ccc2N2CCC(C)CC2)cn1 (single isomer, unassigned) [Example 45, 3-(3-((2-ethoxypyrimidin-5-yl)amino)-4-(4-methylpiperidin-1-yl)phenyl)pentanoic acid]",> 50
2,"COCC(CC(=O)O)c1ccc(N(CC(F)F)C2CCOCC2)c(Nc2ccc(Cl)cc2)c1 (single isomer, unassigned) [Example 321 Enantiomer 2, 3-(3-((4-Chlorophenyl)amino)-4-((2,2-difluoroethyl)(tetrahydro-2H-pyran-4-yl)amino)phenyl)-4-methoxybutanoic acid]",< 5
3,"CCC(CC(=O)O)c1cc(Nc2ccc(Cl)cc2)c(N(CC)C2CCOCC2)cc1F (single isomer, unassigned) [Example 861, 3-(5-((4-Chlorophenyl)amino)-4-(ethyl(tetrahydro-2H-pyran-4-yl)amino)-2-fluorophenyl)pentanoic acid]",< 5
4,"COCC(CC(=O)OC)c1ccc(N(CC(F)F)C2CCOCC2)c(Nc2ccc(Cl)cc2)c1 (stereo not shown) [Example 320, methyl 3-(3-((4-chloro-phenyl)amino)-4-((2,2-difluoroethyl) (tetrahydro-2H-pyran-4-yl)amino)phenyl)-4-methoxy-butanoate]",> 50
5,"CCC1COCCN1c1ccc([C@H](COC)CC(=O)O)cc1Nc1ccc(F)cn1 (single isomer, unassigned) [Example 1310]",> 50
6,"CCC(CC(=O)O)c1ccc(N2CCC(C)CC2)c(NC(=O)Nc2ccc(C)cc2)c1 (single isomer, unassigned) [Example 46 Enantiomer 2, 3-(4-(4-Methylpiperidin-1-yl)-3-(3-(p-tolyl)ureido)phenyl) pentanoic acid]",> 50
7,"CCOc1ncc(Nc2cc(C(CC)CC(=O)O)ccc2N2CCN(C(=O)OC)CC2)cn1 (single isomer, unassigned) [Example 670, 3-(3-((2-Ethoxypyrimidin-5-yl)amino)-4-(4-(methoxycarbonyl)piperazin-1-yl)phenyl)pentanoic acid]",> 50
8,"COCCN(c1ccc(C(COC)CC(=O)O)cc1NC(=O)Nc1ccc(Cl)cc1F)C1CCOCC1 (single isomer, unassigned) [Example 263, 3-(3-(3-(4-chloro-2-fluorophenyl)ureido)-4-((2-methoxyethyl)(tetrahydro-2H-pyran-4-yl)amino)phenyl)-4-methoxybutanoic acid]",> 50
9,(R)-3-(4-(ethyl(tetrahydro-2H-pyran-4-yl)amino)-3-((2-(tetrahydro-2H-pyran-4-yl)pyrimidin-5-yl)amino)phenyl)-4-methoxybutanoic acid [Example 403],> 50
10,"CCN(c1cc(F)c([C@@H](COC)CC(=O)O)cc1Nc1ccc(Cl)cc1)C1CCOCC1 (stereo in doubt) [Example 851, 3-(5-((4-chlorophenyl)amino)-4-(ethyl(tetrahydro-2H-pyran-4-yl)amino)-2-fluorophenyl)-4-methoxybutanoic acid]",< 5
11,"C[C@@H]1CN(c2ccc(C(CC(=O)O)C3CC3)cc2Nc2ccc(Cl)cc2)C[C@H](C)O1 (single isomer, unassigned) [Example 248]",< 50
12,"CCN(c1ccc(C(COC)CC(=O)O)cc1NC(=O)Nc1ccc(C#N)cc1)C1CCOCC1 (single isomer, unassigned) [Example 422 E2]",> 50
13,"COCC(CC(=O)O)c1ccc(N2CCOC[C@H]2C(C)C)c(NC(=O)Nc2ccc(C#N)cc2)c1 (single isomer, unassigned) [Example 915]",> 50
14,"CCC(CC(=O)O)c1ccc(N(CCOC)C2CCOCC2)c(Nc2cnc(OC)nc2)c1 (single isomer, unassigned) [Example 1262, 3-(4-((2-methoxyethyl)(tetrahydro-2H-pyran-4-yl)amino)-3-((2-methoxypyrimidin-5-yl)amino)phenyl)pentanoic acid]",< 50
15,"COCC(CC(=O)O)c1ccc(N(C)C2CCOCC2)c(Nc2ccc(C#N)c(F)c2)c1 (single isomer, unassigned) [Example 882, 3-(3-((4-cyano-3-fluorophenyl)amino)-4-(methyl(tetrahydro-2H-pyran-4-yl)amino)phenyl)-4-methoxybutanoic acid]",< 50
16,"CCN(c1ccc([C@H](COC)CC(=O)O)cc1Nc1ccc(C)cc1)C1CCOCC1 (single isomer, unassigned) [Example 410]",< 50
17,"CCC(CC(=O)O)c1ccc(N(CC)C2CCCOC2)c(Nc2ccc(C#N)cc2)c1 (single isomer, unassigned) [Example 67, 3-(3-((4-cyanophenyl)amino)-4-(ethyl (tetrahydro-2H-pyran-3-yl)amino)phenyl)pentanoic acid]",< 5

row,Compound,IC50 [nM]
1,"CCN(c1ccc([C@H](COC)CC(=O)O)cc1Nc1ccc(Cl)cc1)C1CCOCC1 (single isomer, unassigned) [Example 413]",< 5
2,"CCC1COCCN1c1ccc([C@H](COC)CC(=O)O)cc1Nc1cnc(OC)nc1 (single isomer, unassigned) [Example 1306]",> 50
3,"COCC(CC(=O)O)c1ccc(N2CCOC(C)(C)C2)c(Nc2ccc(C#N)cc2)c1 (single isomer, unassigned) [Example 1317]",> 50
4,"CCC(CC(=O)O)c1cc(F)c(N(CC)C2CCOCC2)c(Nc2ccc(C#N)cn2)c1 (single isomer, unassigned) [Example 143, 3-(3-((5-cyanopyridin-2-yl)amino)-4-(ethyl (tetrahydro-2H-pyran-4-yl)amino)-5-fluorophenyl)pentanoic acid]",< 5
5,"CCN(c1ccc(C(CC(=O)O)C2CC2)cc1NC(=O)Nc1ccc(C#N)cc1)C1CCOCC1 (single isomer, unassigned) [Example 255 Enantiomer 2, 3-(3-(3-(4-Cyanophenyl)ureido)-4-(ethyl(tetrahydro-2H-pyran-4-yl)amino)phenyl)-3-cyclopropylpropanoic acid]",> 50
6,"CCN(c1cc(F)c(C(COC)CC(=O)O)cc1Nc1ccc(Cl)cc1)C1CCOCC1 (stereo not shown) [Example 845, 3-(5-((4-chlorophenyl)amino)-4-(ethyl(tetrahydro-2H-pyran-4-yl)amino)-2-fluorophenyl)-4-methoxybutanoic acid]",< 50
7,"CCOc1ncc(Nc2cc(C(CC)CC(=O)O)ccc2N2CCNCC2)cn1 (single isomer, unassigned) [Example 673]",> 50
8,"CCC(CC(=O)O)c1ccc(N(CC)C2CCN(Cc3ccccc3)CC2)c(Nc2ccc(C#N)cc2)c1 (single isomer, unassigned) [Example 943, 3-(4-((1-benzylpiperidin-4-yl)(ethyl)amino)-3-((4-cyanophenyl)amino)phenyl) pentanoic acid]",< 5
9,"COCC(CC(=O)OC)c1ccc(N(CC(F)F)C2CCOCC2)c(Nc2ccc(Cl)cc2)c1 (stereo not shown) [Example 319, methyl 3-(3-((4-chloro-phenyl)amino)-4-((2,2-difluoroethyl) (tetrahydro-2H-pyran-4-yl)amino)phenyl)-4-methoxy-butanoate]",< 5
10,CCN(c1ccc([C@@H](COC)CC(=O)O)cc1Nc1ccc(C#N)c(OC)c1)C1CCOCC1 [Example 380],< 50
11,"CCN(c1ccc(C(CC(=O)O)C2CC2)cc1Nc1ccc(OC)nc1)C1CCS(=O)(=O)CC1 (single isomer, unassigned) [Example 346, 3-cyclopropyl-3-(4-((1,1-dioxidotetrahydro-2H-thiopyran-4-yl)(ethyl)amino)-3-((6-methoxypyridin-3-yl)amino)phenyl)propanoic acid]",< 50
12,"CC(CC(=O)O)c1ccc(N(CC(C)(C)O)C2CCCCC2)c(Nc2ccc(Cl)cc2)c1 (single isomer, unassigned) [Example 48 Enantiomer 2, 3-(3-((4-Chlorophenyl)amino)-4-(cyclohexyl(2-hydroxy-2-methylpropyl)amino)phenyl)butanoic acid]",< 5
13,"CCC(CC(=O)O)c1ccc(N(CC)C2CCOC2)c(NC(=O)Nc2ccc(Cl)cc2F)c1 (single isomer, unassigned) [948 D1]",< 50
14,"COCCN(c1ccc(C(COC)CC(=O)O)cc1Nc1ccc(F)cc1)C1CCOCC1 (single isomer, unassigned) [Example 260, 3-(3-((4-fluorophenyl)amino)-4-((2-methoxyethyl)(tetrahydro-2H-pyran-4-yl)amino)phenyl)-4-methoxybutanoic acid]",< 50
15,"CCC(CC(=O)O)c1ccc(N2CC(O)(c3ccc(F)cc3)C2)c(Nc2ccc(C#N)cc2)c1 (single isomer, unassigned) [Example 1255, 3-(3-((4-cyanophenyl)amino)-4-(3-(4-fluorophenyl)-3-hydroxyazetidin-1-yl)phenyl)pentanoic acid]",< 50
16,"CCOc1ncc(Nc2cc([C@@H](COC)CC(=O)O)ccc2N2CCOCC2CC)cn1 (single isomer, unassigned) [Example 1299]",> 50
17,"COCCN(c1ccc(C(COC)CC(=O)O)cc1Nc1ccc(Cl)cc1)C1CCOCC1 (single isomer, unassigned) [Example 256 Enantiomer 2, 3-(3-((4-Chlorophenyl)amino)-4-((2-methoxyethyl)(tetrahydro-2H-pyran-4-yl)amino)phenyl)-4-methoxybutanoic acid]",< 5
